Like-named read-outs stand apart in the source and are kept apart here.
Key:
[1] = Total leukocyte number in peripheral blood under Cyclophosphamide
[2] = Peripheral blood leukocytes formula under Cyclophosphamide; type: in vivo, mice; details: day 3 post CPH
From the text: (§1) Two groups of mice are used.

[3] = type: in vivo, mice
From the text: as §1

O=P1(N(CCCl)CCCl)NCCCO1 (centres unmarked) [CPH, Cyclophosphamide]
Total leukocyte number ([1]; CPH 200 mg/kg, day 5): 4.38 ± 0.77 thousand in mm^3
Total leukocyte number ([1]; CPH 200 mg/kg, day 7): 10.50 ± 3.02 thousand in mm^3
Total leukocyte number ([1]; CPH 200 mg/kg, day 10): 6.44 ± 0.60 thousand in mm^3
Total leukocyte number ([1]; CPH 200 mg/kg, day 13): 12.20 ± 3.02 thousand in mm^3
Total leukocyte number ([1]; CPH 200 mg/kg, day 17): 12.20 ± 1.80 thousand in mm^3
Total leukocyte number ([1]; CPH 200 mg/kg, day 21): 11.86 ± 1.32 thousand in mm^3
Total leukocyte number ([1]; single CPH 200 mg/kg (Dicarbamine group: 0.5 mg/kg daily 5 days before and 5 days after), day 3 post CPH): 1.06 ± 0.44 thousand in mm^3
Myelocytes ([2]; CPH 200 mg/kg (Dicarbamine group: 0.5 mg/kg 5 days prior and 5 days after)): 0%
Monocytes [2]: 4.649%
Myelocytes [2]: 0 in mm^3
Cellularity of bone marrow (number of cells) ([3]; CPH 200 mg/kg (Dicarbamine group: 0.5 mg/kg 5 days prior and 5 days after), day 3): 8.2 ± 1.65 millions
Cellularity of bone marrow (number of cells) ([3]; day 5 after CPH): 13.05 ± 2.75 millions
Cellularity of bone marrow (number of cells) ([3]; day 7 after CPH): 25.22 ± 2.75 millions
Cellularity of bone marrow (number of cells) ([3]; day 10 after CPH): 27.9 ± 2.75 millions
Cellularity of bone marrow (number of cells) ([3]; day 13 after CPH): 30.15 ± 6.6 millions
Cellularity of bone marrow (number of cells) ([3]; day 17 after CPH): 25.0 ± 3.16 millions
Cellularity of bone marrow (number of cells) ([3]; day 21 after CPH): 26.55 ± 4.53 millions

From US7759313B2, “Induction method for cell differentiation” (Obschetstvo S Ogranichennoi Otvetstvennostiyu …, priority 2002, dated 2010)
